Chromatographic logP, pest or weed control and LogP data for 43 compounds are collected here from patent publication US20200031778A1, “NOVEL 5-SUBSTITUTED IMIDAZOLYLMETHYL DERIVATIVES” (Bayer CropScience Aktiengesellschaft, priority 2016, published 2020).

Data set [1] in a line: Log P by HPLC on reversed phase columns (EEC directive 79/831 Annex V.A8; methods [a], [b], [c]). Type of data set: physicochemical. As to conditions: for chromatographic logP: reversed phase HPLC column, method [a]: LC-UV, acidic range, 0.1% formic acid in water and acetonitrile as eluent (linear gradient from 10% to 95% acetonitrile). Summed up: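 Log P derived from retention times, interpolated linearly between bracketing straight-chain alkan-2-ones (3–16 carbons) of known Log P. Eluents ran acetonitrile 10% to 95% against water with 0.1% formic acid ([a], acidic), 0.001 M ammonium acetate ([b], neutral) or 0.1% phosphoric acid ([c], acidic); UV read-out.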

A further data set has as its system Septoria tritici. The data set can be described thus: Example IX-B: in vivo preventive test on Septoria tritici (leaf spot on wheat). As to conditions: Zymoseptoria tritici, 576 h; compounds of formula IX; 500 ppm of active ingredient; wheat plants, preventive spray; evaluated 24 days after inoculation; read-out: efficacy. The method, then:
Example IX-B: In Vivo Preventive Test on Septoria Tritici (Leaf Spot on Wheat)
(§1) The active ingredients are made soluble and homogenized in a mixture of Dimethyl sulfoxide/Acetone/Tween® 80 and then diluted in water to the desired concentration.
(§2) The young plants of wheat are treated by spraying the active ingredient prepared as described above. Control plants are treated only with an aqueous solution of Acetone/Dimethyl sulfoxide/Tween® 80.
After 24 hours, the plants are contaminated by spraying the leaves with an aqueous suspension of Septoria tritici spores. The contaminated wheat plants are incubated for 72 hours at 18° C. and at 100% relative humidity and then for 21 days at 20° C. and at 90% relative humidity.
The test is evaluated 24 days after the inoculation. 0% means an efficacy which corresponds to that of the control plants while an efficacy of 100% means that no disease is observed.

For a further data set, the system named is Sphaerotheca fuliginea. As to the kind of experiment: Example IX-C: in vivo preventive test on Sphaerotheca fuliginea (powdery mildew on cucurbits). As to conditions: Podosphaera fuliginea, 360 h; compounds of formula IX; 500 ppm of active ingredient; gherkin plants, preventive spray; evaluated 15 days after inoculation; read-out: efficacy. On the procedure: Example IX-C: In Vivo Preventive Test on Sphaerotheca Fuliginea (Powdery Mildew on Cucurbits)
as §1
The young plants of gherkin are treated by spraying the active ingredient prepared as described above. Control plants are treated only with an aqueous solution of Acetone/Dimethyl sulfoxide/Tween® 80.
After 24 hours, the plants are contaminated by spraying the leaves with an aqueous suspension of Sphaerotheca fuliginea spores. The contaminated gherkin plants are incubated for 72 hours at 18° C. and at 100% relative humidity and then for 12 days at 20° C. and at 70-80% relative humidity.
The test is evaluated 15 days after the inoculation. 0% means an efficacy which corresponds to that of the control plants while an efficacy of 100% means that no disease is observed.

Another data set has as its system Puccinia recondita. As to the kind of experiment: Example IX-A: in vivo preventive test on Puccinia recondita (brown rust on wheat). The note with it: 264 h, compounds of formula IX, 500 ppm of active ingredient, wheat plants, preventive spray, evaluated 11 days after inoculation, read-out: efficacy. The method, then:
Example IX-A: In Vivo Preventive Test on Puccinia Recondita (Brown Rust on Wheat)
as §1, §2
After 24 hours, the plants are contaminated by spraying the leaves with an aqueous suspension of Puccinia recondita spores. The contaminated wheat plants are incubated for 24 hours at 20° C. and at 100% relative humidity and then for 10 days at 20° C. and at 70-80% relative humidity.
The test is evaluated 11 days after the inoculation. 0% means an efficacy which corresponds to that of the control plants while an efficacy of 100% means that no disease is observed.

Consider `N#Cc1cncn1CC(=O)c1ccccc1F` [IX-113], for which the chromatographic logP (in general, lipophilicity estimated from chromatographic retention) in data set [1] was determined as 1.65. Moreover, in the data set on Septoria tritici, the pest or weed control at 500 ppm was in the range of 70 to 79%.
As for `N#Cc1cncn1CC(=O)c1cnc(Oc2ccc(Cl)nc2)cc1C(F)(F)F` [IX-141], the pest or weed control at 500 ppm in the data set on Sphaerotheca fuliginea and with Septoria tritici was 90 to 100% throughout. Moreover, in data set [1], the chromatographic logP amounted to 2.62.
With `N#Cc1cncn1CC(=O)c1cnc(Oc2ccc(Cl)cc2F)cc1C(F)(F)F` [IX-96], the pest or weed control at 500 ppm in the data set on Puccinia recondita lay in the range of 80 to 89%; in the data set with Sphaerotheca fuliginea, 90 to 100%; with Septoria tritici, 90 to 100%. In data set [1], the chromatographic logP is 3.46.
Regarding `O=C(Cn1cncc1Br)c1ccc(Cl)cc1Cl` [IX-20], the pest or weed control at 500 ppm in the data set with Sphaerotheca fuliginea and in the data set with Septoria tritici was 90 to 100% throughout. This compound also displayed a chromatographic logP in data set [1] of 1.94.
`N#Cc1cncn1CC(=O)c1ccc(Oc2c(F)cc(Cl)cc2F)nc1C(F)(F)F` [IX-124] yielded a chromatographic logP in data set [1] of 3.28. Further, the pest or weed control at 500 ppm in the data set with Septoria tritici lay in the range of 90 to 100%.
`N#Cc1cncn1CC(=O)c1ccc(OC(F)(F)F)cc1` [IX-116]: the pest or weed control at 500 ppm with Sphaerotheca fuliginea and in the data set on Septoria tritici was 80 to 89% throughout. Besides, the chromatographic logP in data set [1] amounted to 2.12.
With `O=C(Cn1cncc1Cl)c1ccc(Cl)cc1Cl` [IX-19], the pest or weed control at 500 ppm in the data set on Sphaerotheca fuliginea and in the data set on Septoria tritici was 90 to 100% throughout. In addition, the chromatographic logP in data set [1] was determined as 1.94.
In data set [1], `O=C(Cn1cncc1Cl)c1ccc(Oc2ccc(C(F)(F)F)cc2)c(Br)c1` [IX-16] came in with a chromatographic logP of 3.29. In the data set on Septoria tritici, the pest or weed control at 500 ppm was in the range of 90 to 100%.
As for `O=C(Cn1cncc1Br)c1ccc(Oc2ccc(Cl)cc2)cc1C(F)(F)F` [IX-41], the pest or weed control at 500 ppm with Puccinia recondita lay in the range of 80 to 89%; in the data set on Septoria tritici it was 90 to 100%. In addition, the chromatographic logP in data set [1] was found to be 3.35.
As to `O=C(Cn1cncc1C(F)(F)F)c1ccc(Oc2ccc(I)cc2)cc1F` [IX-49], the pest or weed control at 500 ppm in the data set on Puccinia recondita is 80 to 89%; in the data set on Septoria tritici, 90 to 100%. This compound came in with a chromatographic logP in data set [1] of 4.16.
`CC(=O)c1cncn1CC(=O)c1ccc(Oc2ccc(Br)cc2)nc1C(F)(F)F` [IX-122]: the pest or weed control at 500 ppm with Sphaerotheca fuliginea and in the data set on Septoria tritici was 90 to 100% in each case. The chromatographic logP in data set [1] was found to be 3.31.
On to `O=C(Cn1cncc1Cl)c1ncc(Oc2ccccc2)cc1Cl` [IX-01], for which the chromatographic logP in data set [1] came out at 2.44. In the data set with Septoria tritici, the pest or weed control at 500 ppm lay in the range of 80 to 89%.
On to `CC(=O)c1cncn1CC(=O)c1ccc(Oc2ccc(C(F)(F)F)nc2)nc1C(F)(F)F` [IX-133], for which the chromatographic logP in data set [1] is 2.6. Besides, in the data set with Septoria tritici, the pest or weed control at 500 ppm lay within 90 to 100%.
With `CC(=O)c1cncn1CC(=O)c1cnc(Oc2ccc(C(F)F)cc2)cc1C(F)(F)F` [IX-103], the pest or weed control at 500 ppm with Sphaerotheca fuliginea and in the data set on Septoria tritici was 90 to 100% in each case. In data set [1], this compound registered a chromatographic logP of 2.71.
Turning to `O=C(Cn1cncc1Cl)c1ccc(F)cc1Br` [IX-35], the pest or weed control at 500 ppm in the data set with Sphaerotheca fuliginea lay in the range of 90 to 100%. For the same compound, the chromatographic logP in data set [1] is 1.57.
`N#Cc1cncn1CC(=O)c1ccccc1Br` [IX-127] displayed a chromatographic logP in data set [1] of 1.79. Moreover, in the data set on Septoria tritici, the pest or weed control at 500 ppm was in the range of 90 to 100%.
In turn, `COc1cc(F)ccc1C(=O)Cn1cncc1Cl` [IX-11] displayed a chromatographic logP in data set [1] of 1.34. The pest or weed control at 500 ppm in the data set with Septoria tritici fell in the range of 90 to 100%.
`O=C(Cn1cncc1Br)c1ccc(Oc2ccc(Cl)nc2)cc1Cl` [IX-56]: the results for the pest or weed control at 500 ppm with Puccinia recondita and in the data set on Septoria tritici were 80 to 89% and 90 to 100%, respectively. The same compound yielded a chromatographic logP in data set [1] of 2.25.
In turn, `O=C(Cn1cncc1Br)c1ccc(Oc2ccc(C(F)(F)F)cc2)c(Cl)c1` [IX-03] gave a chromatographic logP in data set [1] of 3.23. In addition, in the data set with Septoria tritici, the pest or weed control at 500 ppm was 90 to 100%.
With `O=C(Cn1cncc1F)c1ccc(Oc2ccc(Br)nc2)nc1C(F)(F)F` [IX-142], the pest or weed control at 500 ppm in the data set with Sphaerotheca fuliginea and in the data set on Septoria tritici was 90 to 100% each time. Besides, in data set [1], the chromatographic logP was found to be 2.14.
With `N#Cc1cncn1CC(=O)c1ccccc1Cl` [IX-126], the results for the pest or weed control at 500 ppm in the data set on Sphaerotheca fuliginea and in the data set with Septoria tritici were 70 to 79% and 80 to 89%, respectively. This compound also had a chromatographic logP in data set [1] of 1.81.
Regarding `N#Cc1cncn1CC(=O)c1ccc(Oc2ccc(Cl)nc2)nc1C(F)(F)F` [IX-140], the pest or weed control at 500 ppm in the data set with Sphaerotheca fuliginea and with Septoria tritici was 90 to 100% throughout. Also, in data set [1], the chromatographic logP amounted to 2.55.
With `O=C(Cn1cncc1Br)c1ccc(Oc2ccc(Cl)nc2)nc1Cl` [IX-27], the pest or weed control at 500 ppm with Sphaerotheca fuliginea and in the data set with Septoria tritici was 90 to 100% each time. Besides, the chromatographic logP in data set [1] is 2.13.
On to `N#Cc1cncn1CC(=O)c1ccc(F)cc1` [IX-100, 3-[2-(4-fluorophenyl)-2-oxo-ethyl]imidazole-4-carbonitrile], for which the pest or weed control at 500 ppm with Sphaerotheca fuliginea and in the data set with Septoria tritici was 90 to 100% each time. This compound showed a chromatographic logP in data set [1] of 1.58.
Take `COc1ccc(Oc2ccc(C(=O)Cn3cncc3Cl)c(C)n2)c(Cl)c1` [IX-25]: the chromatographic logP in data set [1] came to 2.33. Moreover, the pest or weed control at 500 ppm in the data set on Septoria tritici was 90 to 100%.
Turning to `N#Cc1cncn1CC(=O)c1ccc(Oc2ccc(Br)nc2)cc1Cl` [IX-76], in data set [1], the chromatographic logP turned out to be 2.7. Moreover, the pest or weed control at 500 ppm in the data set with Septoria tritici lay in the range of 90 to 100%.
As for `N#Cc1cncn1CC(=O)c1ccccc1C(F)(F)F` [IX-138], the pest or weed control at 500 ppm with Sphaerotheca fuliginea was in the range of 90 to 100%. The chromatographic logP in data set [1] came to 2.07.
For `N#Cc1ccc(Oc2ccc(C(=O)Cn3cncc3Cl)c(Cl)c2)cc1` [IX-12], the pest or weed control at 500 ppm in the data set with Sphaerotheca fuliginea and in the data set with Septoria tritici was 90 to 100% throughout. In data set [1], this compound came in with a chromatographic logP of 2.32.
As to `N#Cc1cncn1CC(O)c1ccc(Oc2ccc(C(F)(F)F)cc2)nc1` (centres unmarked) [I-129], the LogP in data set [1] was 2.55^[a].
The compound `N#Cc1cncn1CC(=O)c1ccc(C(F)(F)F)cc1` [IX-117] came in with a chromatographic logP in data set [1] of 1.99. Besides, the pest or weed control at 500 ppm with Septoria tritici fell in the range of 90 to 100%.
On to `CCCC(O)(Cn1cncc1C#N)c1ccc(Cl)cc1Br` (centres unmarked) [I-409], for which the LogP in data set [1] was 3.13^[a].
On to `N#Cc1cncn1CC(O)(CCCC1CCCCC1)CC1CC1` (centres unmarked) [I-666], for which the LogP in data set [1] was 3.91^[a].
With `OC(Cn1cncc1F)c1ccc(Oc2ccc(C(F)(F)F)nc2)nc1C(F)(F)F` (centres unmarked) [I-142], in data set [1], the LogP was 1.98^[a].
The same measure, in the same setting: in the case of `CC(O)(Cn1cncc1Cl)c1ccc(Oc2ccc(Cl)cc2)cc1Br` (centres unmarked) [I-171] it was 2.82^[a]; in that of `N#Cc1cncn1CC(O)c1ccccc1C(F)(F)F` (centres unmarked) [I-150], 1.81^[a].
As to `CC(O)(Cn1cncc1F)c1ccc(Oc2ccc(C(F)F)cc2)nc1C(F)(F)F` (centres unmarked) [I-295], the LogP in data set [1] was 2.15^[a].
Still for that read-out and setting: in the case of `OC(Cn1cncc1F)c1cnc(Oc2ccc(C(F)(F)F)cc2)cc1Br` (centres unmarked) [I-122] it was 1.94^[a]; in that of `COC(Cn1cncc1Cl)c1ccc(Oc2ccc(Cl)cc2)cc1C(F)F` (centres unmarked) [I-75], 3.15^[a]; in that of `N#Cc1cncn1CC(O)(c1cc(Cl)cc(Cl)c1F)C1(Cl)CC1` (centres unmarked) [I-609], 2.76^[a].
In the case of `CCCC(O)(Cn1cncc1C#N)c1ccc(Cl)cc1C(F)(F)F` (centres unmarked) [I-461], the LogP in data set [1] is 3.05^[a].
Regarding `CCCCC(O)(Cn1cncc1C#N)c1ccccc1Br` (centres unmarked) [I-283], the LogP in data set [1] was 2.89^[a].
For `COC(Cn1cncc1C#N)c1ccc(Oc2ccc(Cl)cc2)cc1C(F)F` (centres unmarked) [I-74], the LogP in data set [1] is 3.76^[a].
As to `OC(Cn1cncc1Cl)c1cnc(Oc2ccc(Cl)cc2)cc1C(F)(F)F` (centres unmarked) [I-25], in data set [1], the LogP is 2.55^[a].
